pIC50: −log10 of the molar value.

Format in all cases: cell-based
Assay [1] addresses T1, human TLR7 (Homo sapiens, UniProt Q9NYK1).
T1 construct: host or cells: HEK-Blue cells
T1 sequence (Q9NYK1 27-1049): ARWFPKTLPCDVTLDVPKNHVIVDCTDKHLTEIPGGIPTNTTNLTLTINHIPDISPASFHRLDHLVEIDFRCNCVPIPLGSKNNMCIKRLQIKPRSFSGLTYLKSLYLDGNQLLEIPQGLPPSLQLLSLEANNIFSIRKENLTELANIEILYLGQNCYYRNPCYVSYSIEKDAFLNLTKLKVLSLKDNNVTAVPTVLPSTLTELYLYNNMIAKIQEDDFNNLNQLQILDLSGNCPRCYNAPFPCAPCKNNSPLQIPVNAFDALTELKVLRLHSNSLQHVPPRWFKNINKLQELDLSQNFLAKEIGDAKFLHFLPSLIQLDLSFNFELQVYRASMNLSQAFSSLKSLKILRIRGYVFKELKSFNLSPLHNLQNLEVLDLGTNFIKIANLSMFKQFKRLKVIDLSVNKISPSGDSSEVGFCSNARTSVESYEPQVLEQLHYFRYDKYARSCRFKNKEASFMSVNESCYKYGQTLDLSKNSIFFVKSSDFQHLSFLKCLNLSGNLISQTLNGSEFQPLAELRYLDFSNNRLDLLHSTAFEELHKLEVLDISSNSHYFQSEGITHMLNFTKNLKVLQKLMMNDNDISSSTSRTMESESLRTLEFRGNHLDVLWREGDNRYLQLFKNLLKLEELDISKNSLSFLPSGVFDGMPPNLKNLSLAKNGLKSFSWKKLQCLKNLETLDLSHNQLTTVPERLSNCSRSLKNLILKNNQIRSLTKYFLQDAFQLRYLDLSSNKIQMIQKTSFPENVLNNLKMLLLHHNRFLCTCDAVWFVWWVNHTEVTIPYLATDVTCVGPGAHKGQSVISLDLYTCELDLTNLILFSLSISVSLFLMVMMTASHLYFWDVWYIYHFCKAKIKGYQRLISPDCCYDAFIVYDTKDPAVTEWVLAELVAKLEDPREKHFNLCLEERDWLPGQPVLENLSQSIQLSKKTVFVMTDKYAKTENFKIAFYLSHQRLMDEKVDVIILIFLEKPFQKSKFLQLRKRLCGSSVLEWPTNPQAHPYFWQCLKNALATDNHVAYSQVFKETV
Nature of the assay: TLR7 inhibition reporter assay (HEK-Blue cells, SEAP reporter, gardiquimod stimulation). The note with it: HEK-Blue cells overexpressing human TLR7, SEAP reporter, gardiquimod 7.5 μM; read-out: TLR7 IC50. The method, boiled down:
(§1)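 HEK-Blue cells overexpressing human TLR7, TLR8 or TLR9 carry a SEAP reporter driven by NF-κB/AP-1 sites. Compounds (0.05 nM–50 μM) were preincubated 30 min at room temperature, then cells were stimulated with gardiquimod 7.5 μM (TLR7), R848 15.9 μM (TLR8) or ODN2006 5 nM (TLR9) for 22 h at 37 °C.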

Assay [2] has as its target T2, human TLR9 (Homo sapiens, UniProt Q9NR96).
T2 construct: host or cells: HEK-Blue cells
T2 sequence (Q9NR96 26-1032): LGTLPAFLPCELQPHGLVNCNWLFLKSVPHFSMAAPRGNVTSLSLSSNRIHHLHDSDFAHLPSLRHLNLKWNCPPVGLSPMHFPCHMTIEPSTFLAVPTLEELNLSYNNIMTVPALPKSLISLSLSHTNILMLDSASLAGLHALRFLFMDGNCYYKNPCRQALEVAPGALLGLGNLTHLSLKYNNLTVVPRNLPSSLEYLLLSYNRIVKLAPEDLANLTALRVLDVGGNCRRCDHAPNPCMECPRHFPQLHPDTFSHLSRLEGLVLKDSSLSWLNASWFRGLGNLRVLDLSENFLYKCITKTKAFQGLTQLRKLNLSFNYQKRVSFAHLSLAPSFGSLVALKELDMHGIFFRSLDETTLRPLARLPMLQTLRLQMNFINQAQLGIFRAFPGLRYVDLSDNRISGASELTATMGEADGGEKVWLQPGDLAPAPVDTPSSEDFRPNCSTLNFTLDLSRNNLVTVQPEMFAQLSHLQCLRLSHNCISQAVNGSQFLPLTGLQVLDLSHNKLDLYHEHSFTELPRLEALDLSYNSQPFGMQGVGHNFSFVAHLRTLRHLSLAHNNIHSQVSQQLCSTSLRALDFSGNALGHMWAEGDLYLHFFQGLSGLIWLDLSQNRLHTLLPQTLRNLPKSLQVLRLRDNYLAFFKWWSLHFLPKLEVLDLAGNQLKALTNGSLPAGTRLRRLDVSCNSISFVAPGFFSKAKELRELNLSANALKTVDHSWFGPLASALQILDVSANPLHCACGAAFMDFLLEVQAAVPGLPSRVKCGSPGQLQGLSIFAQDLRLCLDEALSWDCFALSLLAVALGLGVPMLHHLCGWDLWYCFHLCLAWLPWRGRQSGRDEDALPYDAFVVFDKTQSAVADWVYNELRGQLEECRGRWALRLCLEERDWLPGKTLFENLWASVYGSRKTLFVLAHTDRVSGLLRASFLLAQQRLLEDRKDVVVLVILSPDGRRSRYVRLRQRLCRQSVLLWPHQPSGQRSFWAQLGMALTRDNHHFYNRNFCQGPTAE
Nature of the assay: TLR9 inhibition reporter assay (HEK-Blue cells, SEAP reporter, ODN2006 stimulation). Conditions: HEK-Blue cells overexpressing human TLR9, SEAP reporter, ODN2006 5 nM. The method, boiled down:
as §1
(A reporter such as luciferase makes a cellular process visible.)

Assay [3] addresses T3, human TLR8 (Homo sapiens, UniProt Q9NR97).
T3 construct: host or cells: HEK-Blue cells
T3 sequence (Q9NR97 27-1041): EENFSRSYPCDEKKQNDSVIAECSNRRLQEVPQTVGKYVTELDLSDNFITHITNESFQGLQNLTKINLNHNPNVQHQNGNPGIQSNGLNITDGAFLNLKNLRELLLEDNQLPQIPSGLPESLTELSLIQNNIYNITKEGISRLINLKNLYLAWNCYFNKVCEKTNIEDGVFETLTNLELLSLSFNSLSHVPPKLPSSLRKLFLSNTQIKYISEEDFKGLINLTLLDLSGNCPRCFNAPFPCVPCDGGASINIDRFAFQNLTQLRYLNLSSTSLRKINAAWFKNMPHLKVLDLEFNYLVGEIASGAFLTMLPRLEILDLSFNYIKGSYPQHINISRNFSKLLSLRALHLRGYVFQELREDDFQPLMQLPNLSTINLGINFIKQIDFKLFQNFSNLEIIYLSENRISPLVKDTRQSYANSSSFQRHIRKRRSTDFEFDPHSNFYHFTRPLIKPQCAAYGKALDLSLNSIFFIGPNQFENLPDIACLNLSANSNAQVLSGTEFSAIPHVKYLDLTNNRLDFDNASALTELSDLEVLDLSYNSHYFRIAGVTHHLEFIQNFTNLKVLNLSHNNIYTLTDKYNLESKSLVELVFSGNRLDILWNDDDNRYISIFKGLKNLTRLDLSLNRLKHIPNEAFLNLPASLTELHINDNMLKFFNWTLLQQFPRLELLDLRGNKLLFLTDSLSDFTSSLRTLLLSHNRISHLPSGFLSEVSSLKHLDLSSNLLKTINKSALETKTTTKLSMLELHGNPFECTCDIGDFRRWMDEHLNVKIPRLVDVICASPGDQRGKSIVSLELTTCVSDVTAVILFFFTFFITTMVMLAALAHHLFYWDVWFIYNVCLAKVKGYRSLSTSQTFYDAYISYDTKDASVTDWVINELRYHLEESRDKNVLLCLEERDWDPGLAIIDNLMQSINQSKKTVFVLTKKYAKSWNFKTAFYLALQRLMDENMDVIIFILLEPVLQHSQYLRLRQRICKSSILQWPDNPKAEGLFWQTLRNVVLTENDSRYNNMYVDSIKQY
The assay can be described thus: TLR8 inhibition reporter assay (HEK-Blue cells, SEAP reporter, R848 stimulation). The note with it: HEK-Blue cells overexpressing human TLR8, SEAP reporter, R848 15.9 μM; read-out: TLR8 IC50. The method, boiled down: as §1

As for `Cc1c(-c2[nH]c3sc(C4CCC(N5CC(O)C5)CC4)nc3c2C(C)C)cn2ncnc2c1C` (single isomer, unassigned) [Example 225, 1-(4-(5-(7,8-dimethyl-[1,2,4]triazolo[1,5-a]pyridin-6-yl)-6-isopropyl-4H-pyrrolo[3,2-d]thiazol-2-yl)cyclohexyl)azetidin-3-ol], the pIC50 (commonly −log10 of the IC50, conventionally taken in molar units) in assay [1] was 8.59; in assay [2], 5.26; in assay [3] it was 8.40.

On to `Cc1c(-c2[nH]c3sc(C4CCC(N5CC(O)(C(F)(F)F)C5)CC4)nc3c2C(C)C)cn(C)c(=O)c1C` (single isomer, unassigned) [Example 267, 5-(2-(4-(3-hydroxy-3-(trifluoromethyl)azetidin-1-yl)cyclohexyl)-6-isopropyl-4H-pyrrolo[3,2-d]thiazol-5-yl)-1,3,4-trimethylpyridin-2(1H)-one], for which the pIC50 in assay [1] was 7.61; in assay [2], below 4.30; in assay [3] it was 8.15.

Consider `COc1cc(-c2[nH]c3sc(C(=O)NCCN(C)C)nc3c2C(C)C)cn2ncnc12` [Example 388, N-(2-(dimethylamino)ethyl)-6-isopropyl-5-(8-methoxy-[1,2,4]triazolo[1,5-a]pyridin-6-yl)-4H-pyrrolo[3,2-d]thiazole-2-carboxamide], for which the figures for the pIC50 in assay [1], in assay [2] and in assay [3] were 7.65, 4.79 and 7.43, respectively.

For the molecule `CC(C)c1c(-c2ccc(C#N)c3ncccc23)[nH]c2sc(C3CCN(CC(=O)N(C)C)CC3)nc12` [Example 40, 2-(4-(5-(8-cyanoquinolin-5-yl)-6-isopropyl-4H-pyrrolo[3,2-d]thiazol-2-yl)piperidin-1-yl)-N,N-dimethylacetamide], the pIC50 was 7.52 in assay [1], 4.72 in assay [2] and 7.51 in assay [3].

Consider `COc1cc(-c2[nH]c3sc(C4CCC(N5CCC6(CC5)COC6)CC4)nc3c2C(C)C)cn2ncnc12` (single isomer, unassigned) [Example 112, 7-(4-(6-isopropyl-5-(8-methoxy-[1,2,4]triazolo[1,5-a]pyridin-6-yl)-4H-pyrrolo[3,2-d]thiazol-2-yl)cyclohexyl)-2-oxa-7-azaspiro[3.5]nonane], for which the pIC50 in assay [1] was 7.94; in assay [2] it was below 4.30; in assay [3] it was 7.55.

For the molecule `Cc1cc2ncnn2cc1-c1[nH]c2sc(C3CCC(N4CCNC(=O)C4)CC3)nc2c1C(C)C` (single isomer, unassigned) [Example 148, 4-(4-(6-isopropyl-5-(7-methyl-[1,2,4]triazolo[1,5-a]pyridin-6-yl)-4H-pyrrolo[3,2-d]thiazol-2-yl)cyclohexyl)piperazin-2-one], the pIC50 in assay [1] was 7.93; in assay [2], below 4.30; in assay [3], 8.00.

On to `CC(C)c1c(-c2cn(C)c3ncccc23)[nH]c2sc(C3CCC(N4CC5(COC5)C4)CC3)nc12` (single isomer, unassigned) [Example 181, 6-(4-(6-isopropyl-5-(1-methyl-1H-pyrrolo[2,3-b]pyridin-3-yl)-4H-pyrrolo[3,2-d]thiazol-2-yl)cyclohexyl)-2-oxa-6-azaspiro[3.3]heptane], for which the pIC50 is 8.00 in assay [1], 5.25 in assay [2] and 7.44 in assay [3].

Regarding `Cc1c(-c2[nH]c3sc(C4CCC(N5CC(F)(F)C5)CC4)nc3c2C(C)C)cn2ncnc2c1C` (single isomer, unassigned) [Example 218, 2-(4-(3,3-difluoroazetidin-1-yl)cyclohexyl)-5-(7,8-dimethyl-[1,2,4]triazolo[1,5-a]pyridin-6-yl)-6-isopropyl-4H-pyrrolo[3,2-d]thiazole], the figures for the pIC50 in assay [1], in assay [2] and in assay [3] were 8.84, 4.44 and 7.73, respectively.

As for `Cc1cc(-c2[nH]c3sc(C4CCN(CC5(C)COC5)CC4)nc3c2C(C)C)cc(C)n1` [Example 27, 5-(2,6-dimethylpyridin-4-yl)-6-isopropyl-2-(1-((3-methyloxetan-3-yl)methyl)piperidin-4-yl)-4H-pyrrolo[3,2-d]thiazole], the pIC50 in assay [1] is 7.53; in assay [2], 6.41; in assay [3] it was 8.54.
